Measured values taken from the supplement of paper PMC10883282.

What was measured:
Assay in all cases: relative viability vs DMSO control (72 h) (fraction); higher = more viable cells
HS729 = tested on: HS729
How it was run: (§1)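 Relative viability was measured with ATPLite and expressed as percent growth, averaged across up to triplicate wells. Sarcoma cell lines had been seeded in 384-well plates to reach 80–90% confluence, dosed after 24 h, and incubated 72 h at 37 °C, 5% CO2. All data were rescaled on a scale where 1 is full and 0 is none.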

SK-LMS-1 = tested on: SK-LMS-1
How it was run: as §1

MES-SA = tested on: MES-SA
How it was run: as §1

G401 = tested on: G401
How it was run: as §1

SW872 = tested on: SW872
How it was run: as §1

A204 = tested on: A204
How it was run: as §1

SYO-1 = tested on: SYO-1
How it was run: as §1

KHOS-NP = tested on: KHOS-NP
How it was run: as §1

SW684 = tested on: SW684
How it was run: as §1

VA-ES-BJ = tested on: VA-ES-BJ
How it was run: as §1

SW1353 = tested on: SW1353
How it was run: as §1

HT1080 = tested on: HT1080
How it was run: as §1

N#Cc1ccnc(N2C(=O)CC[C@H]2C(=O)N(c2cncc(F)c2)[C@H](C(=O)NC2CC(F)(F)C2)c2ccccc2Cl)c1 [Ivosidenib]
Conditions	relative viability
A204, 0.00017 µM	1.07
A204, 0.00051 µM	1.03
A204, 0.00152 µM	1.11
A204, 0.00457 µM	1.06
A204, 0.01372 µM	1.04
A204, 0.04115 µM	1.03
A204, 0.1235 µM	1.05
A204, 0.3704 µM	1.015
A204, 1.111 µM	1.06
A204, 3.333 µM	1.03
A204, 10 µM	0.971
G401, 0.00017 µM	0.926
G401, 0.00051 µM	0.927
G401, 0.00152 µM	0.971
G401, 0.00457 µM	1.01
G401, 0.01372 µM	0.952
G401, 0.04115 µM	0.934
G401, 0.1235 µM	0.99
G401, 0.3704 µM	0.943
G401, 1.111 µM	0.958
G401, 3.333 µM	0.929
G401, 10 µM	0.896
HS729, 0.00017 µM	0.966
HS729, 0.00051 µM	1
HS729, 0.00152 µM	1.01
HS729, 0.00457 µM	1.01
HS729, 0.01372 µM	0.998
HS729, 0.04115 µM	0.993
HS729, 0.1235 µM	1.01
HS729, 0.3704 µM	1
HS729, 1.111 µM	0.982
HS729, 3.333 µM	0.949
HS729, 10 µM	0.96
HT1080, 0.00017 µM	0.987
HT1080, 0.00051 µM	1.07
HT1080, 0.00152 µM	1.03
HT1080, 0.00457 µM	1.0513
HT1080, 0.01372 µM	1.09
HT1080, 0.04115 µM	1.07
HT1080, 0.1235 µM	1.11
HT1080, 0.3704 µM	1.106
HT1080, 1.111 µM	1.1
HT1080, 3.333 µM	1.09
HT1080, 10 µM	1.05
KHOS-NP, 0.00017 µM	1.05
KHOS-NP, 0.00051 µM	1.05
KHOS-NP, 0.00152 µM	1.07
KHOS-NP, 0.00457 µM	1.07
KHOS-NP, 0.01372 µM	1.05
KHOS-NP, 0.04115 µM	1.05
KHOS-NP, 0.1235 µM	1.06
KHOS-NP, 0.3704 µM	1.03
KHOS-NP, 1.111 µM	1.05
KHOS-NP, 3.333 µM	1.05
KHOS-NP, 10 µM	1.06
MES-SA, 0.00017 µM	0.905
MES-SA, 0.00051 µM	0.943
MES-SA, 0.00152 µM	0.932
MES-SA, 0.00457 µM	0.935
MES-SA, 0.01372 µM	0.938
MES-SA, 0.04115 µM	0.929
MES-SA, 0.1235 µM	0.933
MES-SA, 0.3704 µM	0.981
MES-SA, 1.111 µM	0.976
MES-SA, 3.333 µM	0.925
MES-SA, 10 µM	0.8939
SK-LMS-1, 0.00017 µM	1.01
SK-LMS-1, 0.00051 µM	1.01
SK-LMS-1, 0.00152 µM	1.033
SK-LMS-1, 0.00457 µM	1.04
SK-LMS-1, 0.01372 µM	1.04
SK-LMS-1, 0.04115 µM	1.02
SK-LMS-1, 0.1235 µM	1.03
SK-LMS-1, 0.3704 µM	0.968
SK-LMS-1, 1.111 µM	0.997
SK-LMS-1, 3.333 µM	0.968
SK-LMS-1, 10 µM	0.954
SW684, 0.00017 µM	1.056
SW684, 0.00051 µM	1.07
SW684, 0.00152 µM	1.08
SW684, 0.00457 µM	1.11
SW684, 0.01372 µM	1.13
SW684, 0.04115 µM	1.06
SW684, 0.1235 µM	1.11
SW684, 0.3704 µM	1.1
SW684, 1.111 µM	1.1
SW684, 3.333 µM	1.1
SW684, 10 µM	1
SW872, 0.00017 µM	1.03
SW872, 0.00051 µM	1.04
SW872, 0.00152 µM	1.04
SW872, 0.00457 µM	1.052
SW872, 0.01372 µM	1.06
SW872, 0.04115 µM	1.03
SW872, 0.1235 µM	1.03
SW872, 0.3704 µM	1.04
SW872, 1.111 µM	1.05
SW872, 3.333 µM	1.047
SW872, 10 µM	1.04
SW1353, 0.00017 µM	0.966
SW1353, 0.00051 µM	0.94
SW1353, 0.00152 µM	0.976
SW1353, 0.00457 µM	0.935
SW1353, 0.01372 µM	0.976
SW1353, 0.04115 µM	0.972
SW1353, 0.1235 µM	0.949
SW1353, 0.3704 µM	0.98
SW1353, 1.111 µM	0.929
SW1353, 3.333 µM	0.973
SW1353, 10 µM	0.972
SYO-1, 0.00017 µM	1.03
SYO-1, 0.00051 µM	1.01
SYO-1, 0.00152 µM	1.07
SYO-1, 0.00457 µM	1.02
SYO-1, 0.01372 µM	1.01
SYO-1, 0.04115 µM	1.01
SYO-1, 0.1235 µM	1.02
SYO-1, 0.3704 µM	1.01
SYO-1, 1.111 µM	1.02
SYO-1, 3.333 µM	1.01
SYO-1, 10 µM	1
VA-ES-BJ, 0.00017 µM	1.03
VA-ES-BJ, 0.00051 µM	1.02
VA-ES-BJ, 0.00152 µM	1
VA-ES-BJ, 0.00457 µM	1.03
VA-ES-BJ, 0.01372 µM	1.04
VA-ES-BJ, 0.04115 µM	1.02
VA-ES-BJ, 0.1235 µM	1.043
VA-ES-BJ, 0.3704 µM	1.003
VA-ES-BJ, 1.111 µM	1.01
VA-ES-BJ, 3.333 µM	1.03
VA-ES-BJ, 10 µM	0.988
